From the NIST ThermoML archive (doi:10.1016/j.jct.2006.03.006)
± gives the expanded uncertainty stated by the source.

Legend:
[1] = Liquid; for mass density: 298.15 K, 101.33 kPa, Pycnometric method
[2] = refractive index (Na D-line) (dimensionless); conditions: 298.15 K; 101.33 kPa; Liquid; Standard Abbe refractometry

CC(C)CO [2-methyl-1-propanol]
mass density [1]: 797.8 ± 4.7 kg/m3 | vapor or sublimation pressure ([1]; 379.65 K): 95.5 ± 5 kPa | refractive index [2]: 1.3939 ± 0.0012

CC(C)(C)O [2-methylpropan-2-ol]
mass density [1]: 781.2 ± 4.5 kg/m3 | vapor or sublimation pressure ([1]; 354.15 K): 95.5 ± 5 kPa | refractive index [2]: 1.3852 ± 0.0012

Cc1cccc(O)c1 [3-methylphenol]
mass density [1]: 1030 ± 7.7 kg/m3 | vapor or sublimation pressure ([1]; 473.75 K): 95.5 ± 5 kPa | refractive index [2]: 1.5395 ± 0.0012

CCCCO [butan-1-ol]
mass density [1]: 805.8 ± 4.8 kg/m3 | vapor or sublimation pressure ([1]; 389.35 K): 95.5 ± 5 kPa | refractive index [2]: 1.3974 ± 0.0012

CCC(C)O (configuration not stated) [butan-2-ol]
mass density [1]: 802.4 ± 4.7 kg/m3 | vapor or sublimation pressure ([1]; 371.26 K): 95.5 ± 5 kPa | refractive index [2]: 1.3953 ± 0.0012

CCO [ethanol]
mass density [1]: 784.9 ± 4.5 kg/m3 | vapor or sublimation pressure ([1]; 349.95 K): 95.5 ± 5 kPa | refractive index [2]: 1.3594 ± 0.0012

CO [methanol]
mass density [1]: 786.4 ± 4.6 kg/m3 | vapor or sublimation pressure ([1]; 336.25 K): 95.5 ± 5 kPa | refractive index [2]: 1.3265 ± 0.0012

CCCO [propan-1-ol]
mass density [1]: 799.6 ± 4.7 kg/m3 | vapor or sublimation pressure ([1]; 368.85 K): 95.5 ± 5 kPa | refractive index [2]: 1.3837 ± 0.0012

CC(C)O [propan-2-ol]
mass density [1]: 781.3 ± 4.5 kg/m3 | vapor or sublimation pressure ([1]; 355.05 K): 95.5 ± 5 kPa | refractive index [2]: 1.3752 ± 0.0012
